Holding throughout (format): cell-based
One assay concerns the target T1, M1 muscarinic receptor (Homo sapiens, UniProt P11229).
T1 construct: expressed in transfected cells; host or cells: CHO (M1-CHO)
T1 sequence (P11229 1-460): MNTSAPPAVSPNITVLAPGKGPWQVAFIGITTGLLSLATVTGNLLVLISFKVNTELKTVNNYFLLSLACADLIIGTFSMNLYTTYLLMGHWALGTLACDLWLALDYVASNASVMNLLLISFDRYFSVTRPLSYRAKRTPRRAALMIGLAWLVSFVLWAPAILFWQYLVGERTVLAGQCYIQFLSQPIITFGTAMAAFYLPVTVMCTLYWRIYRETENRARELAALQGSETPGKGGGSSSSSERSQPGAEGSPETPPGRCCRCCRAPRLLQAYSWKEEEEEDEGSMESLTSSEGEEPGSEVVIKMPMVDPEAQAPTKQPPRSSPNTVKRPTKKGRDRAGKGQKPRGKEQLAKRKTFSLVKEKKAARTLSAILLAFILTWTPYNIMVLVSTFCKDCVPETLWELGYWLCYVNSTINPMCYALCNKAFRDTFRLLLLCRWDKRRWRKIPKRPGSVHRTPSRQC
Briefly: Functional mobilization of intracellular calcium (FLIPR), M1-CHO cells. Particulars: for M1 Activity: M1-CHO cells, calcium mobilization (FLIPR). In a few lines:
(§1)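 Calcium mobilisation read by FLIPR over 60 s (ex 488/em 540 nm) in recombinant muscarinic CHO lines loaded with calcium dye plus 1 mM probenecid. Compounds tested as agonists alone, or as inhibitors against EC80 carbachol after 15 min pre-incubation or co-addition; 0.5% DMSO; efficacy scaled to carbachol maximal response.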

The target of a further assay is T2, M2 muscarinic receptor (Homo sapiens, UniProt P08172).
T2 construct: expressed in transfected cells; host or cells: CHO (M2-CHO)
T2 sequence (P08172 1-466): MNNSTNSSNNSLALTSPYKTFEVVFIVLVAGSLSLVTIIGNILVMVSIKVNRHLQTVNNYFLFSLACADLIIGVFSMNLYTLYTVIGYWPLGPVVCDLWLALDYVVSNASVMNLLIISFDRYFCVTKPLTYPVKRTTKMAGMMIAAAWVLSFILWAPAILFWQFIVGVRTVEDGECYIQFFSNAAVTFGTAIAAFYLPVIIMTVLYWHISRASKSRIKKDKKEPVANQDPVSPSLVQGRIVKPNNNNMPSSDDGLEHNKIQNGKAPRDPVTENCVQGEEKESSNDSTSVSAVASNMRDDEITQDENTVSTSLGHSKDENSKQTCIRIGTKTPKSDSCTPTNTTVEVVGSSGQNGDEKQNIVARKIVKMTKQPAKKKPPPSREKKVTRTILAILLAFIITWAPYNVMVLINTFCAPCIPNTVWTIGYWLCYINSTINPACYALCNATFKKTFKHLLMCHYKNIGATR
The experiment in a line: Functional mobilization of intracellular calcium (FLIPR), M2-CHO cells. Particulars: for M2 Activity: M2-CHO cells, calcium mobilization (FLIPR). In a few lines: as §1

For the next assay, the target named is T3, M3 muscarinic receptor (Homo sapiens, UniProt P20309).
T3 construct: expressed in transfected cells; host or cells: CHO (M3-CHO)
The experiment in a line: Functional mobilization of intracellular calcium (FLIPR), M3-CHO cells. The settings on record: for M3 Activity: M3-CHO cells, calcium mobilization (FLIPR). An outline of the steps: as §1

The target in the next assay is T4, M4 muscarinic receptor (Homo sapiens, UniProt P08173).
T4 construct: expressed in transfected cells; host or cells: CHO (M4-CHO)
T4 sequence (P08173 1-479): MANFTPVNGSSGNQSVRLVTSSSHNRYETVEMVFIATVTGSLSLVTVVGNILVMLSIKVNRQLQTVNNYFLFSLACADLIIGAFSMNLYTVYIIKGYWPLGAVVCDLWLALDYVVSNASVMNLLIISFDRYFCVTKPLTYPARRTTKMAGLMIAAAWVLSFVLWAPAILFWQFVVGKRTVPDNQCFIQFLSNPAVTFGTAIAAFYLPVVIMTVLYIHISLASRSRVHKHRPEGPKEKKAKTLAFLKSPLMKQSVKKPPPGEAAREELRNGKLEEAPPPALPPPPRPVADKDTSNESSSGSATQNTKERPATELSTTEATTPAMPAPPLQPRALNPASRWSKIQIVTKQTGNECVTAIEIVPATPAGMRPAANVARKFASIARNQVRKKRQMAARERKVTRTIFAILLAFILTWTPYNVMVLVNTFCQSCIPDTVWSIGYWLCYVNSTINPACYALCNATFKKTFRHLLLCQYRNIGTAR
The experiment in a line: Functional mobilization of intracellular calcium (FLIPR), M4-CHO cells. Particulars: for M4 Activity: M4-CHO cells, calcium mobilization (FLIPR). In a few lines: as §1

Where [1] appears, read: 100% efficacy = maximum response obtained with the Carbachol control.
The mark [2] stands for this setting: 100% efficacy is the maximum response obtained with the Carbachol control.

SMILES strings stand for the structures.

T3 sequence (P20309 whole entry): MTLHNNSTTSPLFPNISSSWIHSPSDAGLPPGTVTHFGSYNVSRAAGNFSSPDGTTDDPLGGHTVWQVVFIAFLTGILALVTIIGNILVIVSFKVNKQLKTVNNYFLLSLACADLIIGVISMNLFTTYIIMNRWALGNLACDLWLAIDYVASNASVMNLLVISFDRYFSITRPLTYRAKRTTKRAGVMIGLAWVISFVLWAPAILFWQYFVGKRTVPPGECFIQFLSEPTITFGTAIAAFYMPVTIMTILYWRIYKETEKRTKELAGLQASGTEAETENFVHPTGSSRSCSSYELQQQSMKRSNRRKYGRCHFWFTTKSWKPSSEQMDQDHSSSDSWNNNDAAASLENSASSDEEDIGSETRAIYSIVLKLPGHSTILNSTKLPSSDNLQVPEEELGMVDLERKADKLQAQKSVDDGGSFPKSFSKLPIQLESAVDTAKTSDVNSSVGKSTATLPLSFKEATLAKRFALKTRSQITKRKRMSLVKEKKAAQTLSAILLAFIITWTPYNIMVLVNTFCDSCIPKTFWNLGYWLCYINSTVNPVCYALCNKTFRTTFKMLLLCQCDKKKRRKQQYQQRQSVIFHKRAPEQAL

For the molecule `COc1ccc(C(=O)C2CC2)cc1C1CCN([C@H]2C[C@H]3CC[C@H]2C3)CC1` [Compound 3], the Emax at M1 muscarinic receptor (setting [1]), on M2 muscarinic receptor (setting [1]), at M3 muscarinic receptor (setting [1]) and on M4 muscarinic receptor (setting [1]) was less than 25% each time. In addition, at M1 muscarinic receptor, the “M1 Activity” value was “+ (activity was measured to be greater than 5.0 μM)”. At M2 muscarinic receptor, the “M2 Activity” value was “+ (activity was measured to be greater than 5.0 μM)”. Also, the “M3 Activity” value at M3 muscarinic receptor was “+ (activity was measured to be greater than 5.0 μM)”. At M4 muscarinic receptor, the “M4 Activity” value is reported as “+ (activity was measured to be greater than 5.0 μM)”.

On to `COc1ccccc1C1(C#N)CCN(CC2CCOCC2)CC1` [Compound 373], for which the maximal effect (Emax) at M1 muscarinic receptor (setting [2]) was less than 25%; at M2 muscarinic receptor (setting [2]), less than 25%; at M3 muscarinic receptor (setting [2]), less than 25%; on M4 muscarinic receptor (setting [2]), 25 to 100%. For the same molecule, the “M1 Activity” value on M1 muscarinic receptor is recorded as “+ (activity was measured to be greater than 5.0 μM)”. In addition, the “M2 Activity” value on M2 muscarinic receptor is on record as “+ (activity was measured to be greater than 5.0 μM)”. For the same molecule, on M3 muscarinic receptor, the “M3 Activity” value is listed as “+ (activity was measured to be greater than 5.0 μM)”. The “M4 Activity” value at M4 muscarinic receptor is reported as “+ (activity was measured to be greater than 5.0 μM)”.

Take `CCOC(=O)N1CCC(CN2CCC(OC)(c3cc(F)ccc3OC)CC2)CC1` [Compound 295]: the Emax at M1 muscarinic receptor (setting [1]) was 25 to 100%; at M2 muscarinic receptor (setting [1]) it was 25 to 100%; on M3 muscarinic receptor (setting [1]), less than 25%; at M4 muscarinic receptor (setting [1]), 25 to 100%. The “M1 Activity” value on M1 muscarinic receptor was “+++ (activity was measured to be less than 1.0 μM)”. Besides, on M2 muscarinic receptor, the “M2 Activity” value is “++ (activity was measured to be from 1.0 μM to 5.0 μM)”. The “M3 Activity” value on M3 muscarinic receptor is given as “+ (activity was measured to be greater than 5.0 μM)”. Besides, at M4 muscarinic receptor, the “M4 Activity” value was “+++ (activity was measured to be less than 1.0 μM)”.

With `Cc1ccc(F)cc1C1CCN([C@@H]2C[C@H]3CC[C@H]2C3)CC1` [Compound 381], the Emax at M1 muscarinic receptor (setting [2]) is 25 to 100%; at M2 muscarinic receptor (setting [2]) it was 25 to 100%; at M3 muscarinic receptor (setting [2]) it was less than 25%; on M4 muscarinic receptor (setting [2]) it was 25 to 100%. The “M1 Activity” value at M1 muscarinic receptor is listed as “++ (activity was measured to be from 1.0 μM to 5.0 μM)”. Besides, at M2 muscarinic receptor, the “M2 Activity” value is “++ (activity was measured to be from 1.0 μM to 5.0 μM)”. In addition, at M3 muscarinic receptor, the “M3 Activity” value is recorded as “+ (activity was measured to be greater than 5.0 μM)”. For the same molecule, the “M4 Activity” value at M4 muscarinic receptor was “+++ (activity was measured to be less than 1.0 μM)”.

For `CCOC(=O)C(C)(C)Oc1ccccc1C1CCN([C@H]2C[C@H]3CC[C@H]2C3)CC1` [Compound 42], the Emax on M1 muscarinic receptor (setting [1]), on M2 muscarinic receptor (setting [1]), on M3 muscarinic receptor (setting [1]) and on M4 muscarinic receptor (setting [1]) was less than 25% in each case. Besides, the “M1 Activity” value at M1 muscarinic receptor was “+ (activity was measured to be greater than 5.0 μM)”. Besides, the “M2 Activity” value on M2 muscarinic receptor is reported as “+ (activity was measured to be greater than 5.0 μM)”. In addition, on M3 muscarinic receptor, the “M3 Activity” value is given as “+ (activity was measured to be greater than 5.0 μM)”. Moreover, the “M4 Activity” value on M4 muscarinic receptor is “++ (activity was measured to be from 1.0 μM to 5.0 μM)”.

Turning to `COc1ccc(C(F)(F)F)cc1C1CCN(C2C[C@H]3CC[C@H]2C3)CC1` (stereo partly drawn) [Compound 296], the Emax on M1 muscarinic receptor (setting [1]) was 25 to 100%; at M2 muscarinic receptor (setting [1]), less than 25%; on M3 muscarinic receptor (setting [1]), less than 25%; on M4 muscarinic receptor (setting [1]) it was 25 to 100%. On M1 muscarinic receptor, the “M1 Activity” value was “++ (activity was measured to be from 1.0 μM to 5.0 μM)”. On M2 muscarinic receptor, the “M2 Activity” value was “+ (activity was measured to be greater than 5.0 μM)”. For the same molecule, the “M3 Activity” value at M3 muscarinic receptor is “+ (activity was measured to be greater than 5.0 μM)”. The “M4 Activity” value at M4 muscarinic receptor is listed as “++ (activity was measured to be from 1.0 μM to 5.0 μM)”.

The values above are taken from patent publication US7880007B2, “Bicyclic substituted phenyl piperidine modulators of muscarinic receptors” (Vertex Pharmaceuticals Incorporated, priority 2004, dated 2011).
